Test results published in patent US20060100188A1, “Treatment methods” (priority 2004, published 2006).

Columns and labels:
[1] = test system: DAOY human glioma cells (high MGMT level); assay: Colony formation assay, DAOY cells; assay type: cell-based; details: 4-day cycle
Procedure: (§1) As detailed below, DAOY human glioma cells (high MGMT level), A375 human melanoma cells (high MGMT level), and LOX human melanoma cells (low MGMT level) in in vitro colony formation assays were treated with different dosing schedules of TMZ. In brief, sub-confluent plates containing cells (DAOY, A375, or LOX) were trypsinized, then rinsed and suspended in appropriate culture medium before seeding in 6-well plates. Cells were incubated for 18-24 hours at 37° C. to allow cells to attach. Graded concentrations of TMZ or equivalent volumes of diluents were added in triplicate. Each pulse of TMZ lasted for 24 hours. For example, cells receiving continuous daily dosing of TMZ were treated with TMZ-containing medium every 24 hours throughout the cycle. Following the last pulse of TMZ in a cycle, TMZ-containing medium was removed and replaced with fresh medium without TMZ for the rest of the incubation period. Resulting colonies were stained with Crystal Violet solution and quantified using ImagePro plus software (Empire Imaging Systems, Inc. Asbury, N.J.).

[2] = test system: A375 human melanoma cells (high MGMT level); assay: Colony formation assay, A375 cells; assay type: cell-based; details: 4-day cycle
Procedure: as §1

[3] = test system: LOX human melanoma cells (low MGMT level); assay: Colony formation assay, LOX cells; assay type: cell-based
Procedure: as §1
In the 4-day cycle, illustrated in FIG. 3A, TMZ was administered according to one of two different dosing schedules: (i) continuous daily dosing (Day 1-4); or (ii) single pulse dosing (Day 1); where the total amount of TMZ administered was 0, 16, 31, 62, or 124 μg.
In the 8-day cycle, illustrated in FIG. 3B, TMZ was administered according to one of three different dosing schedules: (i) continuous daily dosing (Day 1-8); (ii) dosing for 2 consecutive days (Day 1-2); or (ii) intermittent dosing for 2 days (Day 1, Day 5); where the total amount of TMZ administered was 0, 31, 62, 124, or 248 μg.

[4] = test system: DAOY human glioma xenograft tumors; assay: DAOY human glioma xenograft tumor model; assay type: in vivo, nude mice; details: two 15-day cycles
Procedure: (§2) In brief, female athymic nude mice or female SCID mice (4-6 week old) from Charles River Laboratories were maintained in a VAF-barrier facility. Animal procedures were performed in accordance with the rules set forth in the N.I.H. guide for the care and use of laboratory animals.
(§3) DAOY human glioma cells (5×10^6), LOX human melanoma cells (5×10^5), and A375 human melanoma cells (5×10^6) were inoculated subcutaneously in the right flank of the animal (LOX in SCID mice; DAOY and A375 in nude mice). To facilitate in vivo growth, Matrigel was mixed with DAOY and A375 cells (50%) before inoculation. When tumor volumes were approximately 100 mm^3, animals were randomized and grouped (n=10). Tumor volumes and body weight were measured twice weekly using Labcat™ computer application (Innovative Programing Associates, N.J.). Tumor volumes were calculated by the formula (W×L×H)×π×⅙.
(§4) TMZ was administered by intraperitoneal injections with 20% HPβCD (containing 1% DMSO) as vehicle. Mice bearing xenograft tumors of DAOY human glioma cells, a high MGMT level cell line, were treated with one of three different dosing schedules. In a 15-day cycle, under same total dose levels, mice received one of the following TMZ treatments: (i) day 1 through day 15; (ii) day 1 through day 5; or (iii) intermittently on day 1, 4, 7, 10, and 13. For all dosing schedules, three different dose levels (180, 270, and 405 mg/kg total) were used.
FIG. 5A illustrates the mean tumor growth curves of DAOY human glioma xenograft tumors following TMZ treatment for two consecutive 15-day cycles of continuous daily dosing (Day 1-15 (first cycle), Day 16-30 (second cycle)); where the total dose of TMZ administered was 0, 360, 540, or 810 mg per kg (mpk). FIG. 5B illustrates the mean tumor growth curves of DAOY human glioma xenograft tumors following TMZ treatment for two consecutive 15-day cycles of dosing for 5 consecutive days (Day 1-5 (first cycle); Day 16-20 (second cycle)); where the total dose of TMZ administered was 0, 360, 540, or 810 mpk. FIG. 5C illustrates mean tumor growth curves of DAOY human glioma xenograft tumors following TMZ treatment for two consecutive 15-day cycles of intermittent dosing for 5 days (Day 1, 4, 7, 10, 13 (first cycle); Day 16, 19, 22, 25, 28 (second cycle)); where the total dose of TMZ administered was 0, 360, 540, or 810 mpk.

[5] = test system: A375 human melanoma xenograft tumors; assay: A375 human melanoma xenograft tumor model; assay type: in vivo, nude mice; details: 15-day cycle
Procedure: as §2, §3, §4
Mice bearing xenograft tumors of A375 human melanoma cells, a high MGMT level cell line, were treated with three different dosing schedules. Similar to the schedules used for the DAOY model, in a 15-day cycle, under same total dose levels, mice received one of the following TMZ treatments: (i) day 1 through day 15; (ii) day 1 through day 5; or (iii) intermittently on day 1, 4, 7, 10, and 13. For all dosing schedules, three different dose levels (180, 270, and 405 mg/kg total) were used.

[6] = test system: LOX human melanoma xenograft tumors; assay: LOX human melanoma xenograft tumor model; assay type: in vivo, SCID mice; details: for % Inhibition compared to tumor treated with vehicle: 12-day cycle; for TGI: SCID mice, intermediate dose 72 mg/kg total
Procedure: as §2, §3, §4
Mice bearing xenograft tumors of LOX human melanoma cells, a low MGMT level cell line, were treated with TMZ using two different schedules. The same total dose was administered evenly divided over the course of either: (i) 4 or (ii) 12 days. TMZ was administered through intraperitoneal injection using cumulative total dose levels of 36, 72 or 144 mg/kg.
The efficacy of TMZ was schedule dependent, with greater efficacy seen when dosing for 4 consecutive days.

Q: How did the “% Inhibition compared to untreated cells” value ([1]; continuous daily dosing Day 1-4 (¼ total TMZ/day), total TMZ 93 μg) turn out when `Cn1nnc2c(C(N)=O)ncn2c1=O` [TMZ, 3,4-dihydro-3-methyl-4-oxoimidazo[5,1-d]-as-tetrazine-8-carboxamide] was run?
A: Its value is −8%.

Q: What about the “% Inhibition compared to untreated cells” value ([1]; single pulse dosing Day 1, total TMZ 93 μg) of the same molecule?
A: The value was −37%.

Q: What about the “% Inhibition compared to untreated cells” value ([1]; single pulse dosing Day 1, total TMZ 186 μg) of the same molecule?
A: The value was 20%.

Q: And the “% Inhibition compared to untreated cells” value ([1]; single pulse dosing Day 1, total TMZ 373 μg)?
A: The value was 75%.

Q: And the “% Inhibition compared to untreated cells” value ([2]; continuous daily dosing Day 1-4 (¼ total TMZ/day), total TMZ 62 μg)?
A: Its value is 17.4%.

Q: And the “% Inhibition compared to untreated cells” value ([2]; single pulse dosing Day 1, total TMZ 62 μg)?
A: Its value is 76%.

Q: And the “% Inhibition compared to untreated cells” value ([2]; single pulse dosing Day 1, total TMZ 124 μg)?
A: The value was 88%.

Q: And the “% Inhibition compared to untreated cells” value ([2]; single pulse dosing Day 1, total TMZ 249 μg)?
A: Its value is 96%.

Q: And the “% Inhibition compared to untreated cells” value ([3]; 4-day cycle, continuous daily dosing Day 1-4 (¼ total TMZ/day), total TMZ 16 μg)?
A: The value was 7%.

Q: And the “% Inhibition compared to untreated cells” value ([3]; 4-day cycle, single pulse dosing Day 1, total TMZ 16 μg)?
A: The value was 66%.

Q: And the “% Inhibition compared to untreated cells” value ([3]; 4-day cycle, single pulse dosing Day 1, total TMZ 31 μg)?
A: Its value is 87%.

Q: And the “% Inhibition compared to untreated cells” value ([3]; 4-day cycle, single pulse dosing Day 1, total TMZ 62 μg)?
A: The value was 84%.

Q: What about the “% Inhibition compared to untreated cells” value ([3]; 8-day cycle, continuous daily dosing Day 1-8 (⅛ total TMZ/day), total TMZ 31 μg) of the same molecule?
A: Its value is −5%.

Q: What about the “% Inhibition compared to untreated cells” value ([3]; 8-day cycle, dosing for 2 consecutive days Day 1, Day 2 (½ total TMZ/day), total TMZ 31 μg) of the same molecule?
A: Its value is 45%.

Q: And the “% Inhibition compared to untreated cells” value ([3]; 8-day cycle, dosing for 2 consecutive days Day 1, Day 2 (½ total TMZ/day), total TMZ 62 μg)?
A: The value was 92%.

Q: And the “% Inhibition compared to untreated cells” value ([3]; 8-day cycle, dosing for 2 consecutive days Day 1, Day 2 (½ total TMZ/day), total TMZ 124 μg)?
A: The value was 98%.

Q: And the “% Inhibition compared to untreated cells” value ([3]; 8-day cycle, intermittent dosing for 2 days Day 1, Day 5 (½ total TMZ/day), total TMZ 31 μg)?
A: Its value is 78%.

Q: And the “% Inhibition compared to untreated cells” value ([3]; 8-day cycle, intermittent dosing for 2 days Day 1, Day 5 (½ total TMZ/day), total TMZ 62 μg)?
A: Its value is 98%.

Q: What about the “% Inhibition compared to untreated cells” value ([3]; 8-day cycle, intermittent dosing for 2 days Day 1, Day 5 (½ total TMZ/day), total TMZ 124 μg) of the same molecule?
A: Its value is 99%.

Q: What about the “% Inhibition compared to tumor treated with vehicle” value (shortened to “% Inhibition … with vehicle”) ([4]; continuous dosing Day 1-30, 12 mpk per pulse, total 360 mpk, dose intensity 1, i.p.) of the same molecule?
A: Its value is 66%.

Q: And the “% Inhibition … with vehicle” value ([4]; dosing for 5 consecutive days Day 1-5, Day 16-20, 54 mpk per pulse, total 540 mpk, dose intensity 1.5, i.p.)?
A: Its value is 118%.

Q: What about the “% Inhibition … with vehicle” value ([4]; dosing for 5 consecutive days Day 1-5, Day 16-20, 81 mpk per pulse, total 810 mpk, dose intensity 2.25, i.p.) of the same molecule?
A: Its value is 124%.

Q: What about the “% Inhibition … with vehicle” value ([4]; intermittent dosing Day 1, 4, 7, 10, 13, 16, 19, 22, 25, 28, 54 mpk per pulse, total 540 mpk, dose intensity 1.5, i.p.) of the same molecule?
A: The value was 85%.

Q: And the “% Inhibition … with vehicle” value ([4]; intermittent dosing Day 1, 4, 7, 10, 13, 16, 19, 22, 25, 28, 81 mpk per pulse, total 810 mpk, dose intensity 2.25, i.p.)?
A: Its value is 117%.

Q: And the “% Inhibition … with vehicle” value ([5]; continuous daily dosing Day 1-15, 12 mpk per pulse, total 180 mpk, dose intensity 1, i.p.)?
A: Its value is 34%.

Q: And the “% Inhibition … with vehicle” value ([5]; dosing for 5 consecutive days Day 1-5, 54 mpk per pulse, total 270 mpk, dose intensity 1.5, i.p.)?
A: Its value is 29%.

Q: And the “% Inhibition … with vehicle” value ([5]; dosing for 5 consecutive days Day 1-5, 81 mpk per pulse, total 405 mpk, dose intensity 2.25, i.p.)?
A: Its value is 68%.

Q: What about the “% Inhibition … with vehicle” value ([5]; intermittent dosing Day 1, 4, 7, 10, 13, 54 mpk per pulse, total 270 mpk, dose intensity 1.5, i.p.) of the same molecule?
A: Its value is 58%.

Q: What about the “% Inhibition … with vehicle” value ([5]; intermittent dosing Day 1, 4, 7, 10, 13, 81 mpk per pulse, total 405 mpk, dose intensity 2.25, i.p.) of the same molecule?
A: Its value is 73%.

Q: What about the “% Inhibition … with vehicle” value ([6]; continuous daily dosing Day 1-12, 3 mpk per pulse, total 36 mpk, dose intensity 1, i.p.) of the same molecule?
A: Its value is 37%.

Q: And the “% Inhibition … with vehicle” value ([6]; dosing for 4 consecutive days Day 1-4, 18 mpk per pulse, total 72 mpk, dose intensity 2, i.p.)?
A: Its value is 88%.

Q: And the “% Inhibition … with vehicle” value ([6]; dosing for 4 consecutive days Day 1-4, 36 mpk per pulse, total 144 mpk, dose intensity 4, i.p.)?
A: Its value is 94%.

Q: And the TGI ([6]; 4-day treatment schedule)?
A: The TGI was 88%.

Q: And the TGI ([6]; 12-day schedule)?
A: Its TGI is 50%.
